# According to US8603527B2, “Pharmaceutical formulations of a substituted diaminopurine” (Signal Pharmaceuticals, LLC, priority 2010, dated 2013):
# Assay: clinical
# Settings: human, in vivo, 100 mg; for AUC(0-t): AUC0-t; for Vd/F: Vz/F
# Description: Methods: This was an open-label study conducted at a single study center in conformance with good clinical practice (GCP). Thirty-six eligible healthy male and female subjects were enrolled and distributed into 3 groups as follows:
# Group 1—A total of 12 females between 18 to 55 years of age, inclusive (±5 years age-matched and ±10% weight-matched to subjects in Group 2).
# Group 2—A total of 12 males between 18 to 55 years of age, inclusive (±5 years age-matched and ±10% weight-matched to subjects in Group 1).
# Group 3—A total of 12 males and females between 65 and 85 years of age, inclusive (weight and gender-matched to subjects in Groups 1 and 2), with a minimum of 3 subjects of each gender. Seven of the subjects in Group 3 were age 70 or above, with 2 of those subjects being >75 years of age.
# Group 1 (Healthy Females) and Group 3 (Elderly Males and Females): Subjects were screened within 21 days of dosing and eligible subjects were admitted to the study center on Day −1 (i.e., at least 12 hours predose) for baseline assessments and confirmation of eligibility. A single oral dose of 100 mg Compound I was administered on Day 1 following an overnight fast of at least 8 hours. Subjects were discharged from the study center the morning of Day 3 upon completion of study procedures and returned to the study center for PK blood draws and safety assessments on Days 4, 5, and 6. The end-of-study (EOS) evaluation also occurred on Day 6. Subjects returned to the study center for a follow-up visit between 7 and 10 days from EOS. Serial blood samples were collected predose and up to 120 hours postdose for the determination of plasma Compound I concentrations. Safety was monitored throughout the study; safety evaluations included AE reporting, physical examinations, vital sign measurements, ECGs, and clinical laboratory safety tests. All AEs and concomitant medications were assessed and recorded throughout the study from the time the ICF was signed through follow-up.
# Group 2 (Healthy Males): Subjects in Group 2 participated in this portion of the study to evaluate food effect using a randomized, open-label, single dose, 2-period (Period 1 and Period 2), 2-sequence, 2-way crossover design. Subjects were screened within 21 days of dosing and eligible subjects were admitted to the study center on Day −1 (i.e., at least 12 hours predose) for baseline assessments and confirmation of eligibility. On Day 1 of Period 1, following an overnight fast of at least 8 hours, subjects were randomized to receive 100 mg Compound I either with or without food (6 subjects received Compound I with food and 6 subjects received Compound I without food) according to a random code. Subjects were discharged from the study center the morning of Day 3 upon completion of study procedures and returned to the study center for PK blood draws and safety assessments on Days 4, 5, and 6.
# Following an interdose interval of 10 to 15 days (i.e., at least 10 days and no more than 15 days from the dosing day (Day 1) of Period 1 to Day 1 of Period 2), subjects were re-admitted to the study center on Day −1 of Period 2 (i.e., at least 12 hours predose) for baseline assessments and reconfirmation of eligibility. On Day 1 of Period 2, assigned treatment was switched. Subjects who received Compound I with food in Period 1 received Compound I without food in Period 2 and subjects who received Compound I without food in Period 1 received Compound I with food in Period 2. Subjects were discharged from the study center the morning of Day 3 upon completion of study procedures and returned to the study center for PK blood draws and safety assessments on Days 4, 5, and 6. Day 6 of Period 2 also served as the EOS evaluation. Subjects returned to the study center for a follow-up visit between 7 and 10 days from EOS. In each study period, serial blood samples were collected predose and up to 120 hours postdose for the determination of plasma Compound I concentrations. […]
smiles,measurement,setting,value
"O[C@H]1CC[C@H](Nc2ncc3nc(Nc4c(F)cc(F)cc4F)n([C@H]4CCOC4)c3n2)CC1 [Compound I, 4-((9-((3S)-tetrahydro-3-furanyl)-8-((2,4,6-trifluorophenyl)amino)-9H-purin-2-yl)amino)-trans-cyclohexanol]",AUC(0-t),"both sexes, po, Geometric Mean",13500 ng·h/mL
same,AUC(0-t),"both sexes, po, Geometric Means",13500 ng·h/mL
same,AUC(0-inf),"both sexes, po, AUC0-∞ (geometric mean)",14400 ng·h/mL
same,AUC(0-inf),"both sexes, po, AUC0-∞, Geometric Mean",14400 ng·h/mL
same,AUC(0-inf),"both sexes, po, AUC0-∞, Geometric Means",14300 ng·h/mL
same,AUC,"both sexes, po, AUCO-inf",14800 ng·h/mL
same,AUC,"both sexes, po, AUCO-t",14200 ng·h/mL
same,Cmax,"both sexes, po, Cmax",742 ng/mL
same,Cmax,"both sexes, po, Cmax (geometric mean)",649 ng/mL
same,Cmax,"both sexes, po, Cmax, Geometric Mean",602 ng/mL
same,Cmax,"both sexes, po, Cmax, Geometric Means",654 ng/mL
same,half-life,"both sexes, po, T1/2",24.5 h
same,Tmax,"both sexes, po, Tmax",1.97 h
same,Tmax,"both sexes, po, Tmax, Median",2 h
same,Vd/F,"both sexes, po",250 L
same,half-life,"both sexes, po, mean t1/2",23 to 34 h
same,Tmax,"both sexes, po, median Tmax",1 to 2 h
same,half-life,"both sexes, po, t1/2, Geometric Mean",27.9 h
same,"90% CI for the ratio (elderly/young) of geometric means, AUC0-t",both,"86.7, 119.1"
same,"90% CI for the ratio (elderly/young) of geometric means, AUC0-∞",both,"84.0, 117.3"
same,"90% CI for the ratio (elderly/young) of geometric means, Cmax",both,"82.0, 143.8"
same,"90% CI for the ratio (female/male) of geometric means, AUC0-t",both,"81.7, 112.1"
same,"90% CI for the ratio (female/male) of geometric means, AUC0-∞",both,"79.7, 111.4"
same,"90% CI for the ratio (female/male) of geometric means, Cmax",both,"72.3, 126.7"
same,"AUC0-t, Geometric Mean","both, po",13679.40 ng·h/mL
same,"AUC0-t, Geometric Means","both, po",13722.1 ng·h/mL
same,AUC0-∞ (geometric mean),"both, po",14239.14 ng·h/mL
same,"AUC0-∞, Geometric Mean","both, po",14239.14 ng·h/mL
same,"AUC0-∞, Geometric Means","both, po",14398.3 ng·h/mL
same,"Cmax, Geometric Means","both, po",602.0 ng/mL
same,"Tmax, Median","both, po",1.75 h
same,median Tmax,"both, po",approximately 1.5 hours
same,"t1/2, Geometric Mean","both, po",23.61 h
same,AUC(0-t),"female, po, Geometric Mean",13100 ng·h/mL
same,AUC(0-t),"female, po, Geometric Means",13300 ng·h/mL
same,AUC(0-inf),"female, po, AUC0-∞",13700 ng·h/mL
same,AUC(0-inf),"female, po, AUC0-∞, Geometric Mean",13700 ng·h/mL
same,AUC(0-inf),"female, po, AUC0-∞, Geometric Means",13900 ng·h/mL
same,AUC,"female, po, AUCO-inf",13300 ng·h/mL
same,AUC,"female, po, AUCO-t",12700 ng·h/mL
same,Cmax,"female, po, Cmax",587 ng/mL
same,Cmax,"female, po, Cmax, Geometric Mean",587 ng/mL
same,Cmax,"female, po, Cmax, Geometric Means",614 ng/mL
same,half-life,"female, po, T1/2",24.4 h
same,Tmax,"female, po, Tmax",2.19 h
same,Tmax,"female, po, Tmax, Median",2.06 h
same,Vd/F,"female, po",265 L
same,Tmax,"female, po, median Tmax",2 h
same,half-life,"female, po, t1/2, Geometric Mean",24.6 h
same,"90% CI of the median difference (elderly-young), Tmax",,"−0.5, 0.5"
same,"90% CI of the median difference (fed-fast), Tmax",,"2.00, 3.00"
same,"90% CI of the median difference (female-male), Tmax",,"0.00, 1.00"
same,"90% CI for the ratio (fed/fast) of geometric means, AUC0-t",male,"97.3, 108.1"
same,"90% CI for the ratio (fed/fast) of geometric means, AUC0-∞",male,"98.5, 109.4"
same,"90% CI for the ratio (fed/fast) of geometric means, Cmax",male,"71.6, 105.3"
same,Tmax,male,1.00 h
same,AUC(0-t),male,14400 ng·h/mL
same,AUC(0-inf),"male, AUC0-∞",15600 ng·h/mL
same,Cmax,"male, Cmax",658 ng/mL
same,half-life,"male, t1/2",32 h
same,median Tmax,"male, po",1 h
same,AUC(0-t),"male, po, Geometric Mean",14000 ng·h/mL
same,AUC(0-inf),"male, po, AUC0-∞",15000 ng·h/mL
same,AUC(0-inf),"male, po, AUC0-∞ (geometric mean)",16200 ng·h/mL
same,AUC(0-inf),"male, po, AUC0-∞, Geometric Mean",15000 ng·h/mL
same,AUC,"male, po, AUCO-inf",16000 ng·h/mL
same,AUC,"male, po, AUCO-t",14700 ng·h/mL
same,Cmax,"male, po, Cmax",646 ng/mL
same,Cmax,"male, po, Cmax (geometric mean)",572 ng/mL
same,Cmax,"male, po, Cmax, Geometric Mean",646 ng/mL
same,half-life,"male, po, T1/2",33 h
same,Vd/F,"male, po",308 L
same,half-life,"male, po, t1/2, Geometric Mean",28.1 h
